Reference: US8802665B2, “Pyrrolidine derivatives” (Hoffman-La Roche Inc., priority 2012, dated 2014)

Biological target: human Cat S (Homo sapiens (Human), UniProt P25774)
Assay: Cathepsin enzyme inhibition assay (fluorogenic peptide substrate cleavage)
Assay type: biochemical
Conditions: human Cathepsin S 1 nM, substrate Z-Val-Val-Arg-AMC 20 μM, pH 6.5; read-out: Ic50 CatS: human
Experimental: Cathepsin Enzyme Inhibition Assay
Enzyme activity is measured by observing the increase in fluorescence intensity caused by cleavage of a peptide substrate containing a fluorophore whose emission is quenched in the intact peptide. • Assay buffer: 100 mM potassium phosphate pH 6.5, EDTA-Na 5 mM, Triton X-100 0.001%, DTT 5 mM. • Enzymes (all at 1 nM): human and mouse Cathepsin S, Cat K, Cat B, Cat L. • Substrate (20 μM): Z-Val-Val-Arg-AMC, except for Cat K which uses Z-Leu-Arg-AMC (both from Bachem). • Z=Benzyloxycarbonyl. • AMC=7-Amino-4-Methyl-Coumarin. • DTT=dithiothreitol. • Final volume: 100 μL. • Excitation 360 nm, Emission 465 nm.
Enzyme is added to the substance dilutions in 96-well microtitre plates and the reaction is started with substrate. Fluorescence emission is measured over 20 minutes, during which time a linear increase is observed in the absence of inhibitor. IC50 are calculated by standard methods.
Inhibition of human Cat S, mouse Cat S, human Cat K, human Cat B, human Cat L and mouse Cat L have been measured separately. The results obtained for human Cat S for representative compounds of the invention are expressed in the following table in μM.

Sequence of human Cat S (P25774 115-331): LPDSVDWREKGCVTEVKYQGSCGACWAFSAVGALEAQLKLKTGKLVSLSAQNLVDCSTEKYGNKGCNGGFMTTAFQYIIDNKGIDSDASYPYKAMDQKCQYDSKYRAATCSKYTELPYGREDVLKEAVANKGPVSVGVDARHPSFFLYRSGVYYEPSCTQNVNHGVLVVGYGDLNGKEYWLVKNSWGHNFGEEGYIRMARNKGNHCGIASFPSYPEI

Row | IC50 [nM] | SMILES
1 | 0.4 | N#CC1(NC(=O)[C@@H]2C[C@@H](S(=O)(=O)c3cccc(C(F)(F)F)c3)CN2C(=O)C2(N3CCCCC3)CC2)CC1 [Example 46, (2S,4R)-N-(1-Cyanocyclopropyl)-1-(1-(piperidin-1-yl)cyclopropanecarbonyl)-4-(3-(trifluoromethyl)phenylsulfonyl)pyrrolidine-2-carboxamide]
2 | 0.8 | N#CC1(NC(=O)[C@@H]2C[C@@H](S(=O)(=O)c3ccc(Cl)cc3)CN2C(=O)C2(N3CCCCC3)CC2)CC1 [Example 47, (2S,4R)-4-(4-Chlorophenylsulfonyl)-N-(1-cyanocyclopropyl)-1-(1-(piperidin-1-yl)cyclopropanecarbonyl)pyrrolidine-2-carboxamide]
3 | 2.3 | CC1(C)CCCN(C2(C(=O)N3C[C@H](S(=O)(=O)c4ccccc4Cl)C[C@H]3C(=O)NC3(C#N)CC3)CC2)C1 [Example 48, (2S,4R)-4-(2-Chlorophenylsulfonyl)-N-(1-cyanocyclopropyl)-1-(1-(3,3-dimethylpiperidin-1-yl)cyclopropanecarbonyl)pyrrolidine-2-carboxamide]
